Reference: ChEMBL document CHEMBL1201862, “PubChem BioAssay data set” (2004)
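The compound was tested at five concentrations on cells cultured in 96-well plates, with a 48-hour exposure period. GI50 is the concentration that inhibits growth by half.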 The source made the active and inactive calls. Rule as the data show it: active = GI50 up to about 1.1 µM and inactive = higher.

Experiments:
Assay in all cases: NCI tumour cell line growth inhibition, 48 h
TK-10 = tested on: TK-10
MCF7 = tested on: MCF7
SF-268 = tested on: SF-268
HOP-92 = tested on: HOP-92
CAKI-1 = tested on: CAKI-1
CCRF-CEM = tested on: CCRF-CEM
Malme-3M = tested on: Malme-3M
UACC-62 = tested on: UACC-62
DU-145 = tested on: DU-145
HCT-15 = tested on: HCT-15
SK-MEL-5 = tested on: SK-MEL-5
HL-60 = tested on: HL-60
IGROV-1 = tested on: IGROV-1
NCI-H460 = tested on: NCI-H460
HOP-62 = tested on: HOP-62
SR = tested on: SR
SF-539 = tested on: SF-539
K562 = tested on: K562
KM12 = tested on: KM12
RPMI-8226 = tested on: RPMI-8226
T47D = tested on: T47D
UACC-257 = tested on: UACC-257
A549 = tested on: A549
NCI-H23 = tested on: NCI-H23
HCC 2998 = tested on: HCC 2998
SK-OV-3 = tested on: SK-OV-3
HT-29 = tested on: HT-29
Hs-578T = tested on: Hs-578T
MDA-N = tested on: MDA-N
BT-549 = tested on: BT-549
MOLT-4 = tested on: MOLT-4
LOX IMVI = tested on: LOX IMVI
786-0 = tested on: 786-0
MDA-MB-231 = tested on: MDA-MB-231
SK-MEL-28 = tested on: SK-MEL-28
NCI/ADR-RES = tested on: NCI/ADR-RES
OVCAR-8 = tested on: OVCAR-8
OVCAR-4 = tested on: OVCAR-4
SN12C = tested on: SN12C
M14 = tested on: M14
SW-620 = tested on: SW-620
SNB-75 = tested on: SNB-75
EKVX = tested on: EKVX
COLO 205 = tested on: COLO 205
U-251 = tested on: U-251
NCI-H226 = tested on: NCI-H226
PC-3 = tested on: PC-3
RXF 393 = tested on: RXF 393
SK-MEL-2 = tested on: SK-MEL-2
NCI-H522 = tested on: NCI-H522
HCT-116 = tested on: HCT-116
MDA-MB-435 = tested on: MDA-MB-435
OVCAR-5 = tested on: OVCAR-5
SF-295 = tested on: SF-295
A498 = tested on: A498
OVCAR-3 = tested on: OVCAR-3
SNB-19 = tested on: SNB-19
ACHN = tested on: ACHN

With `O=C(Cc1ccccc1)NNc1nc(NNC(=O)c2ccncc2)nc(Nc2cccc(Cl)c2)n1` the GI50 (TK-10) was > 10 µM (inactive), the GI50 (MCF7) was > 10 µM (inactive) and the GI50 (SF-268) was > 10 µM (inactive). For the same molecule, the GI50 (HOP-92) was > 10 µM (inactive), the GI50 (CAKI-1) was > 10 µM (inactive) and the GI50 (CCRF-CEM) was > 10 µM (inactive). The GI50 (Malme-3M) was > 10 µM (inactive), the GI50 (UACC-62) was > 10 µM (inactive) and the GI50 (DU-145) was > 10 µM (inactive). The GI50 (HCT-15) was > 10 µM, the GI50 (SK-MEL-5) was > 10 µM (inactive) and the GI50 (HL-60) was > 10 µM (inactive). For the same molecule, the GI50 (IGROV-1) was > 10 µM (inactive), the GI50 (NCI-H460) was > 10 µM (inactive) and the GI50 (HOP-62) was > 10 µM (inactive). The GI50 (SR) was > 10 µM (inactive), the GI50 (SF-539) was > 10 µM (inactive) and the GI50 (K562) was > 10 µM (inactive). The GI50 (KM12) was > 10 µM (inactive), the GI50 (RPMI-8226) was > 10 µM (inactive) and the GI50 (T47D) was > 10 µM (inactive). For the same molecule, the GI50 (UACC-257) was > 10 µM (inactive), the GI50 (A549) was > 10 µM (inactive) and the GI50 (NCI-H23) was > 10 µM (inactive). The GI50 (HCC 2998) was > 10 µM (inactive), the GI50 (SK-OV-3) was > 10 µM (inactive) and the GI50 (HT-29) was > 10 µM (inactive). The GI50 (Hs-578T) was > 10 µM (inactive), the GI50 (MDA-N) was > 10 µM (inactive) and the GI50 (BT-549) was > 10 µM (inactive). The GI50 (MOLT-4) was > 10 µM (inactive), the GI50 (LOX IMVI) was > 10 µM (inactive) and the GI50 (786-0) was > 10 µM (inactive). The GI50 (MDA-MB-231) was > 10 µM (inactive), the GI50 (SK-MEL-28) was > 10 µM (inactive) and the GI50 (NCI/ADR-RES) was > 10 µM (inactive). The GI50 (OVCAR-8) was > 10 µM (inactive), the GI50 (OVCAR-4) was > 10 µM (inactive) and the GI50 (SN12C) was > 10 µM (inactive). For the same molecule, the GI50 (M14) was > 10 µM (inactive), the GI50 (SW-620) was > 10 µM (inactive) and the GI50 (SNB-75) was > 10 µM (inactive). For the same molecule, the GI50 (EKVX) was > 10 µM (inactive), the GI50 (COLO 205) was > 10 µM (inactive) and the GI50 (U-251) was > 10 µM (inactive).

For `COC(=O)C(/C(=N/NC(N)=O)C(=O)Nc1ccc(C)cc1)c1nc2ccc([N+](=O)[O-])cc2nc1O` (configuration not stated), the GI50 (TK-10) was > 100 µM (inactive), the GI50 (MCF7) was > 100 µM (inactive) and the GI50 (SF-268) was > 100 µM (inactive). For the same molecule, the GI50 (NCI-H226) was > 100 µM (inactive), the GI50 (HOP-92) was > 100 µM (inactive) and the GI50 (CAKI-1) was > 100 µM (inactive). The GI50 (CCRF-CEM) was > 10 µM (inactive), the GI50 (Malme-3M) was > 100 µM (inactive) and the GI50 (UACC-62) was > 100 µM (inactive). For the same molecule, the GI50 (PC-3) was > 100 µM (inactive), the GI50 (HCT-15) was 37.6 µM and the GI50 (SK-MEL-5) was 57.9 µM (inactive). For the same molecule, the GI50 (IGROV-1) was > 100 µM (inactive), the GI50 (NCI-H460) was 52.2 µM (inactive) and the GI50 (HOP-62) was > 100 µM (inactive). The GI50 (SR) was > 100 µM (inactive), the GI50 (RXF 393) was > 100 µM (inactive) and the GI50 (SF-539) was > 100 µM (inactive). The GI50 (K562) was > 100 µM (inactive), the GI50 (KM12) was 74.3 µM (inactive) and the GI50 (RPMI-8226) was > 100 µM (inactive). The GI50 (T47D) was > 100 µM (inactive), the GI50 (UACC-257) was > 10 µM (inactive) and the GI50 (A549) was > 100 µM (inactive). For the same molecule, the GI50 (SK-MEL-2) was > 100 µM (inactive), the GI50 (HCC 2998) was 70.1 µM (inactive) and the GI50 (SK-OV-3) was > 100 µM (inactive). For the same molecule, the GI50 (NCI-H522) was 27.2 µM (inactive), the GI50 (HT-29) was > 100 µM (inactive) and the GI50 (Hs-578T) was 67.3 µM (inactive). For the same molecule, the GI50 (MDA-N) was > 100 µM (inactive), the GI50 (BT-549) was > 100 µM (inactive) and the GI50 (MOLT-4) was > 100 µM (inactive). The GI50 (LOX IMVI) was 69.3 µM (inactive), the GI50 (786-0) was > 100 µM (inactive) and the GI50 (HCT-116) was > 100 µM (inactive). For the same molecule, the GI50 (MDA-MB-435) was > 100 µM (inactive), the GI50 (MDA-MB-231) was > 100 µM (inactive) and the GI50 (SK-MEL-28) was > 100 µM (inactive). For the same molecule, the GI50 (NCI/ADR-RES) was > 100 µM (inactive), the GI50 (OVCAR-5) was > 100 µM (inactive) and the GI50 (SF-295) was > 100 µM (inactive). The GI50 (OVCAR-8) was > 100 µM (inactive), the GI50 (OVCAR-4) was 50.2 µM (inactive) and the GI50 (SN12C) was > 100 µM (inactive). The GI50 (M14) was > 100 µM (inactive), the GI50 (SW-620) was > 100 µM (inactive) and the GI50 (SNB-75) was > 100 µM (inactive). The GI50 (A498) was > 100 µM (inactive), the GI50 (EKVX) was 56.1 µM (inactive) and the GI50 (OVCAR-3) was > 100 µM (inactive). For the same molecule, the GI50 (U-251) was > 100 µM (inactive).

For `Cc1cc2c(cc1Cl)SC(NNC(=O)c1ccncc1)=NS2(=O)=O`, the GI50 (TK-10) was > 10 µM (inactive), the GI50 (SF-268) was > 10 µM (inactive) and the GI50 (NCI-H226) was > 10 µM (inactive). The GI50 (CAKI-1) was > 10 µM (inactive), the GI50 (CCRF-CEM) was > 10 µM (inactive) and the GI50 (Malme-3M) was > 10 µM (inactive). The GI50 (SNB-19) was > 10 µM (inactive), the GI50 (UACC-62) was > 10 µM (inactive) and the GI50 (DU-145) was > 10 µM (inactive). For the same molecule, the GI50 (PC-3) was > 10 µM (inactive), the GI50 (HCT-15) was > 10 µM and the GI50 (SK-MEL-5) was > 10 µM (inactive). For the same molecule, the GI50 (HL-60) was > 10 µM (inactive), the GI50 (IGROV-1) was > 10 µM (inactive) and the GI50 (NCI-H460) was > 10 µM (inactive). The GI50 (HOP-62) was > 10 µM (inactive), the GI50 (RXF 393) was > 10 µM (inactive) and the GI50 (SF-539) was > 10 µM (inactive). The GI50 (K562) was > 10 µM (inactive), the GI50 (KM12) was > 10 µM (inactive) and the GI50 (RPMI-8226) was > 10 µM (inactive). For the same molecule, the GI50 (T47D) was > 10 µM (inactive), the GI50 (UACC-257) was > 10 µM (inactive) and the GI50 (A549) was > 10 µM (inactive). The GI50 (SK-MEL-2) was > 10 µM (inactive), the GI50 (NCI-H23) was > 10 µM (inactive) and the GI50 (HCC 2998) was > 10 µM (inactive). The GI50 (SK-OV-3) was > 10 µM (inactive), the GI50 (NCI-H522) was > 10 µM (inactive) and the GI50 (HT-29) was > 10 µM (inactive). The GI50 (Hs-578T) was > 10 µM (inactive), the GI50 (MDA-N) was > 10 µM (inactive) and the GI50 (BT-549) was > 10 µM (inactive). For the same molecule, the GI50 (MOLT-4) was > 10 µM (inactive), the GI50 (LOX IMVI) was > 10 µM (inactive) and the GI50 (786-0) was > 10 µM (inactive). For the same molecule, the GI50 (HCT-116) was > 10 µM (inactive), the GI50 (MDA-MB-435) was > 10 µM (inactive) and the GI50 (MDA-MB-231) was > 10 µM (inactive). For the same molecule, the GI50 (SK-MEL-28) was > 10 µM (inactive), the GI50 (ACHN) was > 10 µM (inactive) and the GI50 (NCI/ADR-RES) was > 10 µM (inactive). For the same molecule, the GI50 (OVCAR-5) was > 10 µM (inactive), the GI50 (SF-295) was > 10 µM (inactive) and the GI50 (OVCAR-8) was > 10 µM (inactive). The GI50 (OVCAR-4) was > 10 µM (inactive), the GI50 (SN12C) was > 10 µM (inactive) and the GI50 (M14) was > 10 µM (inactive). The GI50 (SW-620) was > 10 µM (inactive), the GI50 (SNB-75) was > 10 µM (inactive) and the GI50 (A498) was > 10 µM (inactive). The GI50 (EKVX) was > 10 µM (inactive), the GI50 (OVCAR-3) was > 10 µM (inactive) and the GI50 (COLO 205) was > 10 µM (inactive). The GI50 (U-251) was > 10 µM (inactive).
